# In patent publication EP1762239A1, “Lofexidine for intraspinal administration” (Texcontor Etablissement, priority 2005, dated 2007):
# Several values for one entry are separate records, joined by “and”; a condition that tells them apart may be missing. Equal values may be shown once. Where a name gives a salt, the structure may show the parent alone.
# Key:
# [1] = given orally; dosages of up to 1200 µg per day; Human Reproduction, Vol. 16, No. 8, 2001; cited from earlier work
# [2] = Brief observation of general behavior after intrathecal injection; format: in vivo, Wistar rats; conditions: 0.00032 mg/rat and 0.0032 mg/rat (ITH)
# Procedure: Evaluation for pain was performed at 24 hours postoperatively between 08:00 and 16:00h. Each animal was monitored at 15, 30, 60 and 120 minutes after intrathecal administration of lofexidine.HCl. The rats were placed under inverted plexiglas cages on a wire mesh rack and a brief observation of general behavior post-injection was made. The rigid tip part of the Electronic Von Frey Aesthesiometer was applied perpendicularly from underneath the mesh floor to the four points around the wound surface of the animal with slow upward force against the paw. A positive response to tactile pressure was recorded if the paw was sharply withdrawn; ambulation was considered an ambiguous response, and in such cases, the stimulus was reapplied. Mean values from 4 points for each rat and from 5 rats in each group were calculated. Percent inhibition due to treatment relative to pre-treatment pain response was calculated according to the formula: Tactile Pressure [(Post-Treatment) - (Pre-Treatment)]/[(Pre-Incision) - (Pre-Treatment)] x 100%. Inhibition by 50% or more (≥50%) is considered significant analgesic effect. Unpaired Student's t test is applied for comparison of the % inhibition values between test substance-and vehicle-treated groups. Significance is considered at P<0.05 level
# [3] = tested on: rat model of neuropathic pain; assay: Nerve ligation-induced chronic (neuropathic) pain model, mechanical allodynia by electronic von Frey; format: in vivo, Wistar rats; conditions: for Tactile Pressure (g) Post-Treatment Average / Tactile Pressure (g) Δ Treatment Average: group of 5; for Tactile Pressure (g) Post-Treatment / Tactile Pressure (g) Δ Treatment: individual animal; for Inhibition (%): Δ Treatment/Δ Blank x 100%
# Procedure: Lofexidine was evaluated for possible analgesic activity in neuropathic pain using a nerve ligation-induced chronic pain model in rats. Lofexidine HCl was administered intrathecally (ITH) at 3.2 and 10 µg/animal and analgesia was measured at 15, 30, 60 and 120 minutes post-dosing using an Electronic Von Frey Aesthesiometer (IITC, USA) with a #12 supertip. A 50 % or greater (≥50%) inhibition relative to blank indicates possible analgesic activity. Lofexidine HCl at doses of 3.2 and 10 µg/animal were administered intrathecally. Sterile Saline (obtained from Sintong Biotech Company, Taiwan) was used as vehicle and dosing volume was 10 µl/animal. Male Wistar rats provided by Biolasco Taiwan (under a Charles River Laboratories Technology Licensee) were used. Space allocation for 6 animals was 45 x 23 x 21 cm. Animals were housed in APEC^R cages and maintained in a controlled temperature (22-23°C) and humidity (60-70%) environment with 12 hours light dark cycles for at least one week in MDS Pharma Services - Taiwan Laboratory prior to use. Free access to standard lab chow for rats (Lab Diet, Rodent Diet, PMI Nutrition International, USA) and tap water was granted. All aspects of this work including housing, experimentation and disposal of animals were performed in general accordance with the Guide for the Care and Use of Laboratory Animals (National Academy Press, Washington, D. C, 1996). Male Wistar rats weighing 160 to 200 g were used. Under pentobarbital (50 mg/kg, 5 ml/kg, i.p.) anesthesia, the sciatic nerve was exposed at mid-thigh level. Three ligatures (4-0 silk suture), about 1 mm apart, were loosely tied around th e nerve. The animals were then housed individually in cages with soft bedding for 7 days before testing for mechanical allodynia. On the test day, rats were placed under inverted plexiglas cages on a wire mesh rack and allowed to acclimatise for 20 to 30 minutes. Allodynia was evaluated by responsiveness to a #12 Supertip® (IITC, USA) applied beneath the mesh floor perpendicular to the central plantar surface of the left hind paw. The tip was gradually applied with sufficient force to cause slight buckling of the filament against the paw. A positive response to the applied tactile pressure, noted by sharp withdrawal of the paw, was recorded automatically by an Electronic Von Frey Aesthesiometer (2290CE Electrovonfrey®, IITC, USA). The endpoint is the withdrawal threshold (gm) to von Frey filament, serving as a measure of analgesic activity. Rats were pre-selected (for presence of allodynia) for experimentation only if the withdrawal threshold 7 days after nerve ligation (pre-treatment) was reduced by 10 grams of force relative to the response of the individual paw before nerve ligation (pre-ligation). Test substance or vehicle was administered intrathecally (3.2 µg and 10 µg/animal) to groups of 5 animals and the level of allodynia was again determined (at 15, 30, 60 and 120 minutes post-treatment). Allodynia is calculated as follows: % Inhibition=Δ Treatment/Δ Blank x 100%; where Δ Treatment is Tactile Pressure [(Post-Treatment) -(Pre-Treatment)] and Δ Blank is Tactile Pressure [(Pre-Ligation) - (Pre-Treatment)]. A 50 percent or greater (≥50%) inhibition relative to blank indicates possible analgesic activity.
# [4] = 3.2 µg/animal ITH, 120 Minutes, listed as Lofexidine HCI
# [5] = 10 µg/animal ITH, 120 Minutes, listed as Lofexidine HCI
smiles,measurement,setting,value
CC(Oc1c(Cl)cccc1Cl)C1=NCCN1 (centres unmarked) [Lofexidine HCl],effectiveness for treatment of chronic pelvic pain,[1],not effective
same,behavioral changes in treated animals,[2],did not cause behavioral changes
same,gait after intrathecal injection,[2]; all treated animals,normal gait
same,analgesic activity,[3]; 3.2 µg/animal,low levels of analgesic activity
same,Tactile Pressure (g) Post-Treatment Average,"[3]; 3.2 µg/animal ITH, 15 Minutes",12.5 g
same,Tactile Pressure (g) Δ Treatment Average,"[3]; 3.2 µg/animal ITH, 15 Minutes, Δ Blank 30.2",1.3 g
same,Tactile Pressure (g) Post-Treatment,"[3]; 3.2 µg/animal ITH, 15 Minutes",8.9 g and 5.8 g and 23.3 g and 13.4 g and 10.9 g
same,Tactile Pressure (g) Δ Treatment,"[3]; 3.2 µg/animal ITH, 15 Minutes",-1.8 g and -5.2 g and 8.5 g and 6.3 g and -1.1 g
same,Inhibition (%),"[3]; 3.2 µg/animal ITH, 15 Minutes",4%
same,Tactile Pressure (g) Post-Treatment Average,"[3]; 3.2 µg/animal ITH, 30 Minutes",10.1 g
same,Tactile Pressure (g) Δ Treatment Average,"[3]; 3.2 µg/animal ITH, 30 Minutes, Δ Blank 30.2",-1.1 g
same,Tactile Pressure (g) Post-Treatment,"[3]; 3.2 µg/animal ITH, 30 Minutes",7.4 g and 14.2 g and 8.5 g and 10.0 g and 10.2 g
same,Tactile Pressure (g) Δ Treatment,"[3]; 3.2 µg/animal ITH, 30 Minutes",-3.8 g and -0.6 g and 1.4 g and -2.0 g and -0.5 g
same,Inhibition (%),"[3]; 3.2 µg/animal ITH, 30 Minutes",-4%
same,Tactile Pressure (g) Post-Treatment Average,"[3]; 3.2 µg/animal ITH, 60 Minutes",9.3 g
same,Tactile Pressure (g) Δ Treatment Average,"[3]; 3.2 µg/animal ITH, 60 Minutes, Δ Blank 30.2",-1.8 g
same,Tactile Pressure (g) Post-Treatment,"[3]; 3.2 µg/animal ITH, 60 Minutes",7.5 g and 12.7 g and 11.3 g and 6.5 g and 8.7 g
same,Tactile Pressure (g) Δ Treatment,"[3]; 3.2 µg/animal ITH, 60 Minutes",-3.7 g and -2.1 g and 4.2 g and -5.5 g and -2.0 g
same,Inhibition (%),"[3]; 3.2 µg/animal ITH, 60 Minutes",-6%
same,Tactile Pressure (g) Post-Treatment Average,"[3]; 3.2 µg/animal ITH, 120 Minutes",9.2 g
same,Tactile Pressure (g) Δ Treatment Average,"[3]; 3.2 µg/animal ITH, 120 Minutes, Δ Blank 30.2",-2.0 g
same,Tactile Pressure (g) Post-Treatment,[3]; [4],6.1 g and 12.4 g and 7.9 g and 10.8 g and 8.6 g
same,Tactile Pressure (g) Δ Treatment,[3]; [4],-5.1 g and -2.4 g and 0.8 g and -1.2 g and -2.1 g
same,Inhibition (%),"[3]; 3.2 µg/animal ITH, 120 Minutes",-7%
same,Tactile Pressure (g) Post-Treatment Average,"[3]; 10 µg/animal ITH, 15 Minutes",23.3 g
same,Tactile Pressure (g) Δ Treatment Average,"[3]; 10 µg/animal ITH, 15 Minutes, Δ Blank 27.9",13.0 g
same,Tactile Pressure (g) Post-Treatment,"[3]; 10 µg/animal ITH, 15 Minutes",>36.8 g and 12.4 g and 17.2 g and 26.7 g and 23.6 g
same,Tactile Pressure (g) Δ Treatment,"[3]; 10 µg/animal ITH, 15 Minutes",24.7 g and 1.5 g and 11.0 g and 15.7 g and 12.3 g
same,Inhibition (%),"[3]; 10 µg/animal ITH, 15 Minutes",47%
same,Tactile Pressure (g) Post-Treatment Average,"[3]; 10 µg/animal ITH, 30 Minutes",26.4 g
same,Tactile Pressure (g) Δ Treatment Average,"[3]; 10 µg/animal ITH, 30 Minutes, Δ Blank 27.9",16.1 g
same,Tactile Pressure (g) Post-Treatment,"[3]; 10 µg/animal ITH, 30 Minutes",42.6 g and 7.0 g and >31.5 g and >35.5 g and 15.6 g
same,Tactile Pressure (g) Δ Treatment,"[3]; 10 µg/animal ITH, 30 Minutes",30.5 g and -3.9 g and 25.3 g and 24.5 g and 4.3 g
same,Inhibition (%),"[3]; 10 µg/animal ITH, 30 Minutes",58%
same,Tactile Pressure (g) Post-Treatment Average,"[3]; 10 µg/animal ITH, 60 Minutes",20.8 g
same,Tactile Pressure (g) Δ Treatment Average,"[3]; 10 µg/animal ITH, 60 Minutes, Δ Blank 27.9",10.5 g
same,Tactile Pressure (g) Post-Treatment,"[3]; 10 µg/animal ITH, 60 Minutes",20.5 g and 15.1 g and 36.5 g and 23.2 g and 8.9 g
same,Tactile Pressure (g) Δ Treatment,"[3]; 10 µg/animal ITH, 60 Minutes",8.4 g and 4.2 g and 30.3 g and 12.2 g and -2.4 g
same,Inhibition (%),"[3]; 10 µg/animal ITH, 60 Minutes",38%
same,Tactile Pressure (g) Post-Treatment Average,"[3]; 10 µg/animal ITH, 120 Minutes",11.0 g
same,Tactile Pressure (g) Δ Treatment Average,"[3]; 10 µg/animal ITH, 120 Minutes, Δ Blank 27.9",0.6 g
same,Tactile Pressure (g) Post-Treatment,[3]; [5],13.5 g and 10.8 g and 11.8 g and 12.3 g and 6.4 g
same,Tactile Pressure (g) Δ Treatment,[3]; [5],1.4 g and -0.1 g and 5.2 g and 1.3 g and -4.9 g
same,Inhibition (%),"[3]; 10 µg/animal ITH, 120 Minutes",2%
same,"peak of analgesic activity, time post-dosing",[3]; 10 µg/animal intrathecal,30 min
same,analgesic activity,"[3]; 10 µg/animal intrathecal, 30 minutes post-injection",significant analgesic activity
same,analgesic activity,"[3]; 10 µg/animal intrathecal, 120 minutes post-dosing",no longer evident
